Experimental data: patent publication US8846704B2, “Thiopyrimidine-based compounds and uses thereof” (YM Biosciences Austraila Pty Ltd, priority 2007, dated 2014)

Experiments:
Assay type in all cases: biochemical
Flt 4(h) = biological target: T1, Flt 4(h) (Homo sapiens, UniProt P35916); experiment: Upstate KinaseProfiler enzyme assay, Flt 4; conditions: 500 nM compound; read-out: Percent inhibition at 500 nM Flt 4(h)
T1 construct: purchased Upstate Biotechnology (Dundee, UK), KinaseProfiler service
Procedure: (§1) Further enzyme assays were conducted at Upstate Biotechnology (Dundee, UK) in the KinaseProfiler™ Assay system.
(§2) The general protocol is as follows. All kinases are pre-diluted to a 10× working concentration prior to addition into the assay. The composition of the dilution buffer for the kinases is 20 mM MOPS pH 7.0, 1 mM EDTA, 0.1% β-mercaptoethanol, 0.01% Brij-35, 5% glycerol, 1 mg/ml BSA. All substrates are dissolved and diluted to working stocks in de-ionised water.

Flt 1(h) = biological target: T2, Flt 1(h) (Homo sapiens, UniProt P17948); experiment: Upstate KinaseProfiler enzyme assay, Flt 1; conditions: 500 nM compound; read-out: Percent inhibition at 500 nM Flt 1(h)
T2 construct: purchased Upstate Biotechnology (Dundee, UK), KinaseProfiler service
Procedure: as §1, §2

Blk(m) = biological target: T3, Blk(m) (Mus musculus, UniProt P16277); experiment: Upstate KinaseProfiler enzyme assay, Blk; conditions: 500 nM compound; read-out: Percent inhibition at 500 nM Blk(m)
T3 construct: purchased Upstate Biotechnology (Dundee, UK), KinaseProfiler service
Procedure, shortened: (§3)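 First, enzymes were pre-diluted (10× working) in 20 mM MOPS, pH 7.0, supplemented with EDTA (1 mM), BSA (1 mg/ml) and glycerol (5%), plus 0.1% β-mercaptoethanol and 0.01% Brij-35. Next, they were added to the assay alongside substrates diluted in de-ionised water.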

KDR(h) = biological target: T4, KDR(h) (Homo sapiens, UniProt P35968); experiment: Upstate KinaseProfiler enzyme assay, KDR; conditions: 500 nM compound; read-out: Percent inhibition at 500 nM KDR(h)
T4 construct: purchased Upstate Biotechnology (Dundee, UK), KinaseProfiler service
Procedure, shortened: as §3

Bmx(h) = biological target: T5, Bmx(h) (Homo sapiens, UniProt P51813); experiment: Upstate KinaseProfiler enzyme assay, Bmx; conditions: 500 nM compound; read-out: Percent inhibition at 500 nM Bmx(h)
T5 construct: purchased Upstate Biotechnology (Dundee, UK), KinaseProfiler service
T5 sequence (P51813 1-675): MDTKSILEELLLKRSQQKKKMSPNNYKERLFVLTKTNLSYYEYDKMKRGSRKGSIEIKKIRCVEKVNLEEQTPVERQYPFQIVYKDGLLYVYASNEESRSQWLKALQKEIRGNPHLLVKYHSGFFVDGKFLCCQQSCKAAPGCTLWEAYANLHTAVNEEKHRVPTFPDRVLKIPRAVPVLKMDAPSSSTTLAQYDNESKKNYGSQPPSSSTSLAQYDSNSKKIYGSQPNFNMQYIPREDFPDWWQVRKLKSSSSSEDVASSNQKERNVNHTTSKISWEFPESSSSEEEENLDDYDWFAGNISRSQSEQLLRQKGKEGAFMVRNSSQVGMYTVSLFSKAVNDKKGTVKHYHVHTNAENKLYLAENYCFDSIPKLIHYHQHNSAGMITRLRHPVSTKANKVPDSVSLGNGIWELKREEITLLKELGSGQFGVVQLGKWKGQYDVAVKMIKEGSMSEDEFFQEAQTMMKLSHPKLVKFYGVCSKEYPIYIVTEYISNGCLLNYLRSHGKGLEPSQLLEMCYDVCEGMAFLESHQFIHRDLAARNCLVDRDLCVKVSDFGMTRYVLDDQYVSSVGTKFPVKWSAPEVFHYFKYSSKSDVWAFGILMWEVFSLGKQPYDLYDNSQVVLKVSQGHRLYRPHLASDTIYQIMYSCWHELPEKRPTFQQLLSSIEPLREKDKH
Procedure, shortened: as §3

BTK(h) = biological target: T6, BTK(h) (Homo sapiens, UniProt Q06187); experiment: Upstate KinaseProfiler enzyme assay, BTK; conditions: 500 nM compound; read-out: Percent inhibition at 500 nM BTK(h)
T6 construct: purchased Upstate Biotechnology (Dundee, UK), KinaseProfiler service
Procedure, shortened: as §3

T6 sequence (Q06187 whole entry): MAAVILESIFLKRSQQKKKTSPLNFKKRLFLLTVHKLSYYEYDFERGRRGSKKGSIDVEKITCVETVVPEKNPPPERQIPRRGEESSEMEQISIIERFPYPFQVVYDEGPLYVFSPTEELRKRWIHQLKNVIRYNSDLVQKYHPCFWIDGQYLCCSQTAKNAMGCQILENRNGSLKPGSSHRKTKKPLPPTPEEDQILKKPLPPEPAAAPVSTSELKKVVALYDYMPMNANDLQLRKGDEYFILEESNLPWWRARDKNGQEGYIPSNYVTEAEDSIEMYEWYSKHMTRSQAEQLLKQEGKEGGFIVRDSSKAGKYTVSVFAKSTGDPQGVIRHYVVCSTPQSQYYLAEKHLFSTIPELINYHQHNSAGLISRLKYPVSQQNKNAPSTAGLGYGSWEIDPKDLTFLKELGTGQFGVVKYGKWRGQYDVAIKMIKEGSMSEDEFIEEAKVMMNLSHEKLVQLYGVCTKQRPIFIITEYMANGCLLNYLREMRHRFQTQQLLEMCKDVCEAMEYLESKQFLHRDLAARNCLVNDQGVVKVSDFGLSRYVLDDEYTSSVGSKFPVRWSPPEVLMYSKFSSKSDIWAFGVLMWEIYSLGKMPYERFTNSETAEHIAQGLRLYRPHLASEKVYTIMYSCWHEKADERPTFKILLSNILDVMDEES
T1 sequence (P35916 25-1363): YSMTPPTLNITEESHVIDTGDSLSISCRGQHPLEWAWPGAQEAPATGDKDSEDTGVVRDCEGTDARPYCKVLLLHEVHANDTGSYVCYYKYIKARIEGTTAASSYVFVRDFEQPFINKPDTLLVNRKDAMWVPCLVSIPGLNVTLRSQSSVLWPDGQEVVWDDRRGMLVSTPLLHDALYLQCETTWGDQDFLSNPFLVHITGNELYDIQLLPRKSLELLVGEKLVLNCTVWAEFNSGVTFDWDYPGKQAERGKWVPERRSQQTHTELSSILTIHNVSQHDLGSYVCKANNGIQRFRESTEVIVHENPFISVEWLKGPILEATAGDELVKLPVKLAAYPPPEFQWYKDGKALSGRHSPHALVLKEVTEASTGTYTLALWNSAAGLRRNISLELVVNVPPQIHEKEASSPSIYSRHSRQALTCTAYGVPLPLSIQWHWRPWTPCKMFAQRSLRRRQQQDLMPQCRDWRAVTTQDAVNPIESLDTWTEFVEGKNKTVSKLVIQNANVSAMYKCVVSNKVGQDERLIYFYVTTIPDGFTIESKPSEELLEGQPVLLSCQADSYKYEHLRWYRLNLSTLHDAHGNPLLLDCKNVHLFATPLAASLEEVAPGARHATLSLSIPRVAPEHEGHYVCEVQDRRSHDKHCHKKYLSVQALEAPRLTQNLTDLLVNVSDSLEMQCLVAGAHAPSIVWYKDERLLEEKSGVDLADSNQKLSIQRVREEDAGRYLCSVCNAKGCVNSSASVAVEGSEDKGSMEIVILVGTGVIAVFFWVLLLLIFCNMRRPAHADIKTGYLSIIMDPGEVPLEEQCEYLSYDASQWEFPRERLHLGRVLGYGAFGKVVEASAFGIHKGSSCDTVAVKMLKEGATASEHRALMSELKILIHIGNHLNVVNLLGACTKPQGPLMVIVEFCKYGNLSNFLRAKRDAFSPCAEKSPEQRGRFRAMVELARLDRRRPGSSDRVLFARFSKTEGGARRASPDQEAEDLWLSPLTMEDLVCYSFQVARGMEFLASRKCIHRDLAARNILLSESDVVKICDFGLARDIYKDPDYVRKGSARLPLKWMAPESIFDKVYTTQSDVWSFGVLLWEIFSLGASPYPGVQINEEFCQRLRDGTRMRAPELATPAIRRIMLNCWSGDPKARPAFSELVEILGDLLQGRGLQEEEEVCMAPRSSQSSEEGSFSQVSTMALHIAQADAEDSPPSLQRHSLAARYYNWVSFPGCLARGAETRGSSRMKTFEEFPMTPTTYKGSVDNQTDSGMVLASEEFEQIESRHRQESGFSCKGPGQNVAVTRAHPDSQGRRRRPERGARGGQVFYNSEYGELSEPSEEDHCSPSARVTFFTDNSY
T3 sequence (P16277 whole entry): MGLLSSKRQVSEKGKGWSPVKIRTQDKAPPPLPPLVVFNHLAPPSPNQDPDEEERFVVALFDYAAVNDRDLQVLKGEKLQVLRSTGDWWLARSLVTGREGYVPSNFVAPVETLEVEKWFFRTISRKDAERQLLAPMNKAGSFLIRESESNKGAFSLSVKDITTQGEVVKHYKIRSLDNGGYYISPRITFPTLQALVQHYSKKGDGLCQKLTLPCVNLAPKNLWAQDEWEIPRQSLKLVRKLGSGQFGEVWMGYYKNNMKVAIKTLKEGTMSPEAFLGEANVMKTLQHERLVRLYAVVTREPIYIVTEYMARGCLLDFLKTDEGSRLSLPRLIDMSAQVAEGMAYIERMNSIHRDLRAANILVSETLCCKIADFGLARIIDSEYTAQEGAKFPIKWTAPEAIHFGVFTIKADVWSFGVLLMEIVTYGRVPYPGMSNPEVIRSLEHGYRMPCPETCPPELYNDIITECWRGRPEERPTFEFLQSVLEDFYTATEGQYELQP
T4 sequence (P35968 20-1356): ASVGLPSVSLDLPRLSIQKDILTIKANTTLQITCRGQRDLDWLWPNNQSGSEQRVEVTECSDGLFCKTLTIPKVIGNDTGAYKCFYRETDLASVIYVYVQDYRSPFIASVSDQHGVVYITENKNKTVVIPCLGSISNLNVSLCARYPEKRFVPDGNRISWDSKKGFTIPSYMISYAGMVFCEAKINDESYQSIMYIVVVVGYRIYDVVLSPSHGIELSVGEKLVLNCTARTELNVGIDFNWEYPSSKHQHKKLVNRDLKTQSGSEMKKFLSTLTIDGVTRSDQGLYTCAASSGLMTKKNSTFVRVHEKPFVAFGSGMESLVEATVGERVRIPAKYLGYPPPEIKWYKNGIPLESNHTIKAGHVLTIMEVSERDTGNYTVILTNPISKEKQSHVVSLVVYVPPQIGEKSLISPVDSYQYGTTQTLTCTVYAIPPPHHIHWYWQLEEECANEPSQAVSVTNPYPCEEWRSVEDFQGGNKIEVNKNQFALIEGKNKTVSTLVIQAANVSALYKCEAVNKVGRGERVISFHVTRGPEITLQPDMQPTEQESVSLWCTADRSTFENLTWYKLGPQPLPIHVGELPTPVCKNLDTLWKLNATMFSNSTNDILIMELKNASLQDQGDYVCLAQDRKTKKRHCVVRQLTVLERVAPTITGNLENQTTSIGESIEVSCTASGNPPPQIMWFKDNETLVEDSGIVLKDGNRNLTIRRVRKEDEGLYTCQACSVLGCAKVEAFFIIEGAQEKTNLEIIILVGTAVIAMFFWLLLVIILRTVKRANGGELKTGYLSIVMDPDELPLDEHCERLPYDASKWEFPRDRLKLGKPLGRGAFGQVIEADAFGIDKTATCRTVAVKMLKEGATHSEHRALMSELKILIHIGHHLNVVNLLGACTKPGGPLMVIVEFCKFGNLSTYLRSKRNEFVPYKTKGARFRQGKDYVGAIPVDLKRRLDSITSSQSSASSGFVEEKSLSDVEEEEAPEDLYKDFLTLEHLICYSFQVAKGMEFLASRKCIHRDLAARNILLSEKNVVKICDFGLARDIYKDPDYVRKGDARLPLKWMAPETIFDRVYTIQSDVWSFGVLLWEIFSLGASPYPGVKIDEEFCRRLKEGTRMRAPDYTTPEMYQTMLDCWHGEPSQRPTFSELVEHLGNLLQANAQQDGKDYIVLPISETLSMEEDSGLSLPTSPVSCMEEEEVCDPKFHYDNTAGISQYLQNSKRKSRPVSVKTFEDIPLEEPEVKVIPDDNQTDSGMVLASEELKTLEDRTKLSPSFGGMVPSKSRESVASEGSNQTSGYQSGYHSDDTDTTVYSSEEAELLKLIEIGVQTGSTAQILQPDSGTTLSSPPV

| SMILES | inhibition at 0.5 µM (Flt 4(h)) | inhibition at 0.5 µM (Flt 1(h)) | inhibition at 0.5 µM (Blk(m)) | inhibition at 0.5 µM (KDR(h)) | inhibition at 0.5 µM (Bmx(h)) | inhibition at 0.5 µM (BTK(h)) |
| --- | --- | --- | --- | --- | --- | --- |
| C=CC(=O)Nc1ccc(Sc2nc(Nc3cccc(CO)c3)ncc2C)cc1 [Compound 280, N-(4-(2-(3-(hydroxymethyl)phenylao)-5-methylpyrimidin-4-ylthio)phenyl)acrylamide] | 100% | 100% | 99% | 97% | 98% | 97% |
| C=CC(=O)Nc1ccc(Sc2nc(Nc3ccc(N4CCN(C)CC4)cc3)ncc2C)cc1 [Compound 239, N-(4-(5-methyl-2-(4-(4-methylpiperazin-1-yl)phenylao)pyrimidin-4-ylthio)phenyl)acrylamide] | 100% | 100% | 99% | 96% | 99% | 97% |
| C=CC(=O)Nc1ccc(Sc2nc(Nc3cccc(N4CCOCC4)c3)ncc2F)cc1 [Compound 267, N-(4-(5-fluoro-2-(3-morpholinophenylao)pyrimidin-4-ylthio)phenyl)acrylamide] | 100% | 100% | 96% | 94% | 89% | 94% |
| C=CC(=O)N(C)c1ccc(Sc2nc(Nc3ccc(N4CCOCC4)cc3)ncc2C)cc1 [Compound 173, N-methyl-N-(4-(5-methyl-2-(4-morpholinophenylao)pyrimidin-4-ylthio)phenyl)acrylamide] | 98% | 95% | 93% | 96% | 94% | 93% |
| C=CC(=O)Nc1ccc(Sc2nc(Nc3ccc(OC)c(NS(C)(=O)=O)c3)ncc2C)cc1 [Compound 293, N-(4-(2-(4-methoxy-3-(methylsulfonamido)phenylao)-5-methylpyrimidin-4-ylthio)phenyl)acrylamide] | 100% | 79% | 30% | 95% | 79% | 55% |
| C=CC(=O)Nc1ccc(Sc2nc(Nc3ccc(OCCCN(CC)CC)cc3)ncc2C)cc1 [Compound 291, N-(4-(2-(4-(3-(diethylao)propoxy)phenylao)-5-methylpyrimidin-4-ylthio)phenyl)acrylamide] | 100% | 100% | 99% | 96% | 99% | 95% |
| Cc1cnc(Nc2ccc(N3CCOCC3)cc2)nc1Sc1ccc(N2C(=O)CSCC2=O)cc1 [Compound 231, 4-(4-(5-methyl-2-(4-morpholinophenylao)pyrimidin-4-ylthio)phenyl)thiomorpholine-3,5-dione] | 100% | 95% | 82% | 99% | 99% | 91% |
| C=CC(=O)Nc1ccc(Sc2ccnc(Nc3ccc(S(N)(=O)=O)c(OC)c3)n2)cc1 [Compound 374, N-(4-(2-(3-methoxy-4-sulfamoylphenylao)pyrimidin-4-ylthio)phenyl)acrylamide] | 100% | 100% | 96% | 96% | 91% | 96% |
| C=CC(=O)Nc1ccc(Sc2nc(Nc3ccc(C4CCN(C)CC4)cc3)ncc2C)cc1 [Compound 246, N-(4-(5-methyl-2-(4-(1-methylpiperidin-4-yl)phenylao)pyrimidin-4-ylthio)phenyl)acrylamide] | 100% | 100% | 97% | 93% | 98% | 97% |
| N#Cc1nnnn1Cc1ccc(Sc2ccnc(Nc3ccc(N4CCOCC4)cc3)n2)cc1 [Compound 155, 1-(4-(2-(4-morpholinophenylao)pyrimidin-4-ylthio)benzyl)-1H-tetrazole-5-carbonitrile] | 99% | 74% | 40% | 98% | 86% | 81% |
| C=CC(=O)Nc1ccc(Sc2nc(Nc3cccc(NS(C)(=O)=O)c3)ncc2C)cc1 [Compound 288, N-(4-(5-methyl-2-(3-(methylsulfonamido)phenylao)pyrimidin-4-ylthio)phenyl)acrylamide] | 100% | 100% | 99% | 94% | 100% | 98% |
| C=CC(=O)Nc1ccc(Sc2nc(Nc3ccc(OC)c(OC)c3)ncc2C)cc1 [Compound 241, N-(4-(2-(3,4-dimethoxyphenylao)-5-methylpyrimidin-4-ylthio)phenyl)acrylamide] | 100% | 100% | 98% | 97% | 92% | 88% |
| C=CC(=O)Nc1ccc(Sc2nc(Nc3ccc(OCCN4CCOCC4)cc3)ncc2C)cc1 [Compound 290, N-(4-(5-methyl-2-(4-(2-morpholinoethoxy)phenylao)pyrimidin-4-ylthio)phenyl)acrylamide] | 100% | 100% | 97% | 95% | 97% | 94% |
